Here are results for 19 compounds from patent US5276049A, “Cyclic urea derivatives, pharmaceutical compositions containing these compounds and methods of using the same” (Dr. Karl Thomae GmbH, priority 1991, dated 1994).

Structures can show the parent of a compound that is named as a salt. Some results are limits rather than exact numbers.

The subject of series [1] is Human Thrombocytes. As to the kind of experiment: Fibrinogen Binding to Human Thrombocytes (I125-fibrinogen, gel-filtered platelets). Conditions: inhibition of I125-fibrinogen binding to gel-filtered human platelets, ADP, 20 minutes, ambient temperature; read-out: Fibrinogen Binding test IC50. The essentials:
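Gel-filtered human platelets (from citrated PRP, pH 7.4 Tris/citrate/glucose buffer) incubated 20 min at ambient temperature with test compound, CaCl2, ADP and I125-fibrinogen; non-specific binding with 3 mg/ml cold fibrinogen. Platelets spun through silicone oil, bound fibrinogen gamma-counted; IC50 from a concentration series.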

The test system of series [2] is mice. Conditions: mouse, in vivo, 30 mg/kg.
Series [3] has as its system thrombocyte aggregation in platelet-rich plasma. The series is described as follows: Antithrombotic effect: collagen-induced thrombocyte aggregation in platelet-rich plasma (Born and Cross). Type of series: cell-based. Conditions: human platelet-rich plasma, 10 minutes preincubation at 37° C., read-out: Inhibition of platelet aggregation EC50. The essentials: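 Human platelet-rich plasma (citrated 1:10, 3.14%) incubated with compound 10 min at 37 °C, then aggregation triggered by minimal collagen giving irreversible response. Optical density change tracked photometrically (Born and Cross); EC50 determined graphically as 50% inhibition of optical density change.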

The subject of series [4] is collagen-induced thrombocyte aggregation. The series is described as follows: Collagen-induced thrombocyte aggregation ex vivo after oral administration. Conditions: Rhesus monkeys, 1 mg/kg. Type of series: in vivo.

As a reminder, the IC50 is the concentration that gives 50% inhibition. In general, EC50 refers to the midpoint of the concentration-response curve. Take `N=C(N)c1ccc(N2CCN(c3ccc(CCC(=O)O)cc3)S2(=O)=O)cc1` [1(66), 2-(4-amidino-phenyl)-5-[4-(2-carboxy-ethyl)-phenyl]-3,4-dihydro-2H,5H-1,2,5-thiadiazole-1,1-dioxide]: the concentration for half-maximal inhibition (IC50) in series [1] worked out at 9.1 nM. Besides, in series [2], the sedation entry was “one animal was sedated”. In series [3], the EC50 came out at 50 nM.
As to `Cc1nn(-c2ccc(C(=N)N)cc2)c(=O)n1-c1ccc(CCC(=O)O)cc1` [1(139), 2-(4-amidino-phenyl)-4-[4-(2-carboxy-ethyl)-phenyl]-5-methyl-4H-1,2,4-triazol-3-one], in series [1], the IC50 came out at 6.8 nM. Further, in series [2], the sedation entry is on record as “one animal was sedated”. In addition, the 50% effective concentration (EC50) in series [3] worked out at 30 nM.
As to `COC(=O)CCc1ccc(-n2ccn(-c3ccc(C(=N)NC(=O)OC)cc3)c2=O)cc1` [5(8), 1-(4-methoxycarbonylamidino-phenyl)-3-[4-(2-methoxycarbonyl-ethyl)-phenyl]-3H-imidazol-2-one], the IC50 in series [1] was found to be 8000 nM. In addition, the concentration giving a half-maximal response (EC50) in series [3] came out at 31000 nM.
As for `COC(=O)CCc1ccc(N2C(=O)CN(c3ccc(C(=N)NC(=O)OC)cc3)C2=O)cc1` [5(13), 1-(4-methoxycarbonylamidino-phenyl)-3-[4-(2-methoxycarbonyl-ethyl)-phenyl]-imidazolidin-2,4-dione], the concentration for half-maximal inhibition (IC50) in series [1] was greater than 10000 nM. For the same compound, the EC50 in series [3] is 24000 nM.
On the same counts, the results for `COC(=O)CCc1ccc(N2CCCN(c3ccc(CN)cc3)C2=O)cc1` [8(1), 1-(4-aminomethyl-phenyl)-3-[4-(2-methoxycarbonyl-ethyl)-phenyl]-3,4,5,6-tetrahydro-1H-pyrimidin-2-one hydrochloride] are 68000 nM and 21000 nM.
With `COC(=O)CCc1ccc(N2CCN(c3ccc(CN)cc3)C2=O)cc1` [8(2), 1-(4-aminomethyl-phenyl)-3-[4-(2-methoxycarbonyl-ethyl)-phenyl]-imidazolidin-2-one hydrochloride], the IC50 in series [1] was determined as 450 nM. Besides, the EC50 in series [3] was found to be 370 nM.
The matching figures for `COC(=O)C(N)Cc1ccc(N2CCN(c3ccc(CN)cc3)C2=O)cc1` (stereo not drawn) [8(3), 1-[4-(2-amino-2-methoxycarbonyl-ethyl)-phenyl]-3-(4-aminomethyl-phenyl)-imidazolidin-2-one dihydrochloride]: 29000 nM and 6200 nM.
For the compound `COC(=O)CCc1ccc(N2CCN(c3ccc(CN)cc3C)C2=O)cc1` [8(5), 1-(4-aminomethyl-2-methyl-phenyl)-3-[4-(2-methoxycarbonyl-ethyl)-phenyl]-imidazolidin-2-one], the IC50 in series [1] worked out at 3000 nM. The EC50 in series [3] was 5900 nM.
`Cc1nn(-c2ccc(C(=N)N)cc2)c(=O)n1-c1ccc(CCC(=O)OCC(C)C)cc1` [11(12), 2-(4-amidino-phenyl)-4-[4-(2-isobutyloxycarbonyl-ethyl)-phenyl]-5-methyl-4H-1,2,4-triazol-3-one hydrochloride]: the IC50 in series [1] turned out to be 43 nM. For the same compound, the EC50 in series [3] amounted to 30 nM.
For `COC(=O)C[S+]([O-])c1ccc(N2CCN(c3ccc(C(=N)N)cc3)C2=O)cc1` (stereo not drawn) [18(5), 1-(4-amidino-phenyl)-3-(4-methoxycarbonylmethyl-sulphinyl-phenyl)-imidazolidin-2-one], the IC50 in series [1] turned out to be 420 nM. For the same compound, in series [3], the EC50 was determined as 120 nM.
For the compound `COC(=O)CCc1ccc(N2CCN(c3ccc4c(c3)CCC4N)C2=O)cc1` (stereo not drawn) [31(1), 1-(1-amino-5-indanyl)-3-[4-(2-methoxycarbonyl-ethyl)-phenyl]-imidazolidin-2-one hydrochloride], the half-maximal inhibitory concentration (IC50) in series [1] was found to be 170 nM. Also, the EC50 in series [3] turned out to be 370 nM.
On to `Cc1cn(-c2ccc(C(=N)N)cc2)c(=O)n1-c1ccc(CCC(=O)O)cc1` [Example 1(138), 1-(4-amidino-phenyl)-3-[4-(2-carboxy-ethyl)-phenyl]-4-methyl-3H-imidazol-2-one], for which, in series [1], the IC50 is 21 nM. Also, the “death of animals after intravenous administration” value in series [2] (iv) is “did not lead to the death of any of the three animals tested”. Further, the EC50 in series [3] was 40 nM.
On to `N=C(N)c1ccc(-c2ccc(N3CCN(CC(=O)O)C3=O)cc2)cc1` [Example 1, 1-(4'-Amidino-4-biphenylyl)-3-carboxymethyl-imidazolidin-2-one], for which the IC50 in series [1] came to 1800 nM. The concentration for a half-maximal effect (EC50) in series [3] was found to be 9900 nM.
For `COC(=O)CN1CCN(c2ccc(-c3ccc(C(=N)N)cc3)cc2)C1=O` [Example 2, 1-(4'-Amidino-4-biphenylyl)-3-methoxycarbonylmethyl-imidazolidin-2-one hydrochloride], the half-maximal inhibitory concentration (IC50) in series [1] is 6000 nM. Further, the EC50 in series [3] amounted to 12000 nM.
With `COC(=O)NC(=N)c1ccc(-n2nc(C)n(-c3ccc(CCC(=O)OCC(C)C)cc3)c2=O)cc1` [Example 5(18), 4-[4-(2-isobutyloxycarbonyl-ethyl)-phenyl]-2-(4-methoxycarbonylamidino-phenyl)-5-methyl-4H-1,2,4-triazol-3-one], the half-inhibitory concentration (IC50) in series [1] is greater than 10000 nM. Moreover, in series [3], the EC50 was 8060 nM. Further, the “duration of inhibition of collagen-induced thrombocyte aggregation ex vivo” value in series [4] is “up to 8 hours”.
Turning to `CCOC(=O)CCc1ccc(-n2ccn(-c3ccc(C(=N)NC(=O)OCC)cc3)c2=O)cc1` [Example 5, 1-(4-Ethoxycarbonylamidino-phenyl)-3-[4-(2-ethoxycarbonyl-ethyl)-phenyl]-3H-imidazol-2-one], the half-maximal inhibitory concentration (IC50) in series [1] was 9300 nM. Further, the half-maximal effective concentration (EC50) in series [3] is 32000 nM.
Consider `COC(=O)COc1ccc(N2CCN(c3ccc(CN)cc3)C2=O)cc1` [Example 8, 1-(4-Aminomethyl-phenyl)-3-(4-methoxycarbonylmethyloxy-phenyl)-imidazolidin-2-one hydrochloride], for which the IC50 in series [1] is 750 nM. In addition, in series [3], the concentration for a half-maximal effect (EC50) was 600 nM.
For the compound `CC(=O)N(CCN1CCN(c2ccc(C(=N)N)cc2)C1=O)CC(=O)O` [Example 30, 1-[2-(N-Acetyl-N-carboxymethyl-amino)-ethyl]-3-(4-amidino-phenyl)-imidazolidin-2-one], the IC50 in series [1] was 4400 nM. Besides, in series [3], the EC50 turned out to be 8300 nM.
For the compound `COC(=O)CCc1ccc(N2CCN(c3ccc(C(C)N)cc3)C2=O)cc1` (stereo not drawn) [Example 31, 1-[4-(1-Amino-ethyl)-phenyl]-3-[4-(2-methoxycarbonyl-ethyl)-phenyl]-imidazolidin-2-one hydrochloride], the IC50 in series [1] was found to be 250 nM. In series [3], the EC50 stood at 500 nM.
